In patent US11951094B2, “TLR2 modulator compounds, pharmaceutical compositions and uses thereof” (Axial Therapeutics, Inc., priority 2020, dated 2024) one finds EC50 data, which are given here for 23 compounds.

pEC50: −log10 of the molar value. Counter-ions that a name gives are not always drawn. Some results are limits rather than exact numbers.

TLR2, sequence (O60603 21-784): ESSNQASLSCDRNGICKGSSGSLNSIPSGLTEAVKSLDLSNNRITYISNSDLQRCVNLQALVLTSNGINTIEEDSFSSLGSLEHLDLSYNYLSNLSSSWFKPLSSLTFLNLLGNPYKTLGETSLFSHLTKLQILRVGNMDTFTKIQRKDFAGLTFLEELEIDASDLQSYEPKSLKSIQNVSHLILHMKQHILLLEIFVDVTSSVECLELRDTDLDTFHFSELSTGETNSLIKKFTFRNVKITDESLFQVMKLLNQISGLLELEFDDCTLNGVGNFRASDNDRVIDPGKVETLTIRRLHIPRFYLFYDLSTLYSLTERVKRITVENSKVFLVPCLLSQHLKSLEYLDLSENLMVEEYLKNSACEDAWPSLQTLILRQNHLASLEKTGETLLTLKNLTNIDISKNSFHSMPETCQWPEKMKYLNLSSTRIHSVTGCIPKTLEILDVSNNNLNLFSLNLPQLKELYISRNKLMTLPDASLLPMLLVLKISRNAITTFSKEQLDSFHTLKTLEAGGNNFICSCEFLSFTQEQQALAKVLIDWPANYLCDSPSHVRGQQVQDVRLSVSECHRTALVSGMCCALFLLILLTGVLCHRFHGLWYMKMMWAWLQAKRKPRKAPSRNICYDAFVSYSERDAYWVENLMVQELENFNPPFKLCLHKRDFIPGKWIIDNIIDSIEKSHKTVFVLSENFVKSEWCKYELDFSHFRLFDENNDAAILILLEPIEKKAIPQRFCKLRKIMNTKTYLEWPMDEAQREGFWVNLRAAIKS

The target in the first test is TLR2 (Homo sapiens, UniProt O60603). Kind of test: TLR2 agonist screening assay, HEK-Blue TLR2 reporter cell line (NF-kB-driven SEAP, absorbance at 600 nm). Format: cell-based. Also noted: host or cells: HEK-293 (HEK-Blue TLR2 reporter cell line). As to conditions: HEK-Blue TLR2 reporter cells, agonist mode; average of all runs (Table 3). Put shortly:
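TLR2 engagement is scored through NF-kB-induced secreted alkaline phosphatase in HEK-293 cells, detected by substrate colour change at 600 nm after overnight compound treatment at 1% final DMSO. Potency is expressed as EC50.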
The term pEC50 denotes the EC50 on a negative log10 scale, so that one unit is a factor of ten. Read a low pEC50 as a high EC50. In the case of `CCCCCCN(CCCCCC)C(=O)[C@H]1CCN(C(=O)c2ccc(C(=O)N3C[C@@H](C(=O)N[C@H]4C[C@@H]4c4ccccc4)[C@H](C(=O)N[C@H]4C[C@@H]4c4ccccc4)C3)cc2)C1` [Compound 009], the pEC50 was < 6.00. With `CCCCCCNC(=O)[C@@H](CNC(=O)c1ccc(C(=O)N2C[C@@H](C(=O)N[C@H]3C[C@@H]3c3ccccc3)[C@H](C(=O)N[C@H]3C[C@@H]3c3ccccc3)C2)cc1)NC(=O)CCCCCC` [Compound 070, (3S,4S)-1-(4-(((R)-2-heptanamido-3-(hexylamino)-3-oxopropyl)carbamoyl)benzoyl)-N3,N4-bis((1S,2R)-2-phenylcyclopropyl)pyrrolidine-3,4-dicarboxamide], the negative logarithm of the EC50 (pEC50) is < 6.00.

Take `CCCCCCCCCCNC(=O)C1CN(C(=O)c2ccc(C(=O)N3C[C@@H](C(=O)N[C@H]4C[C@@H]4c4ccccc4)[C@H](C(=O)N[C@H]4C[C@@H]4c4ccccc4)C3)cc2)CCN1C(=O)CCCCCCC` (stereo partly drawn) [Compound 066, (3S,4S)-1-(4-(3-(decylcarbamoyl)-4-octanoylpiperazine-1-carbonyl)benzoyl)-N3,N4-bis((1S,2R)-2-phenylcyclopropyl)pyrrolidine-3,4-dicarboxamide]: the pEC50 is 6.46 to 7.29. Still for that read-out and setting: under `CCCCCCCCCCCCCCNC(=O)C1CN(C(=O)c2ccc(C(=O)N3C[C@@H](C(=O)N[C@H]4C[C@@H]4c4ccccc4)[C@H](C(=O)N[C@H]4C[C@@H]4c4ccccc4)C3)cc2)CCO1` (some centres unmarked) [Compound 006] stands 6.00 to 6.45; under `CCCCCCCCCCCCCCNC(=O)[C@@H]1CN(C(=O)c2ccc(C(=O)N3C[C@@H](C(=O)N[C@H]4C[C@@H]4c4ccccc4)[C@H](C(=O)N[C@H]4C[C@@H]4c4ccccc4)C3)cc2)CCN1C` [Compound 069, (3S,4S)-1-(4-((S)-4-methyl-3-(tetradecylcarbamoyl)piperazine-1-carbonyl)benzoyl)-N3,N4-bis ((1S,2R)-2-phenylcyclopropyl) pyrrolidine-3,4-dicarboxamide formate], 6.00 to 6.45; under `CCCCCCNC(=O)[C@@H]1CN(C(=O)c2ccc(C(=O)N3C[C@@H](C(=O)N[C@H]4C[C@@H]4c4ccccc4)[C@H](C(=O)N[C@H]4C[C@@H]4c4ccccc4)C3)cc2)C[C@H]1O` (relative stereo) [Compound 033, (3S,4S)-1-(4-((3R*,4S*)-3-(hexylcarbamoyl)-4-hydroxypyrrolidine-1-carbonyl)benzoyl)-N3,N4-bis((1S,2R)-2-phenylcyclopropyl)pyrrolidine-3,4-dicarboxamide], 6.46 to 7.29. Still for that read-out and setting: under `CCCCCCCCCCCCCCNC(=O)[C@H]1CCN(C(=O)c2ccc(C(=O)N3C[C@@H](C(=O)N[C@H]4C[C@@H]4c4ccccc4)[C@H](C(=O)N[C@H]4C[C@@H]4c4ccccc4)C3)cc2)C1` [Compound 004] stands 7.30 to 10.00.

For the compound `O=C(NC1CCCCCCC1)[C@H]1CCN(C(=O)c2ccc(C(=O)N3C[C@@H](C(=O)N[C@H]4C[C@@H]4c4ccccc4)[C@H](C(=O)N[C@H]4C[C@@H]4c4ccccc4)C3)cc2)C1` [Compound 003], the negative-log EC50 (pEC50) was < 6.00. Consider `CCCCCN(CCCCC)C(=O)[C@H]1CCN(C(=O)c2ccc(C(=O)N3C[C@@H](C(=O)N[C@H]4C[C@@H]4c4ccccc4)[C@H](C(=O)N[C@H]4C[C@@H]4c4ccccc4)C3)cc2)C1` [Compound 022], for which the pEC50 was < 6.00. Consider `CCCCCCNC(=O)[C@H]1CN(C(=O)c2ccc(C(=O)N3C[C@@H](C(=O)N[C@H]4C[C@@H]4c4ccccc4)[C@H](C(=O)N[C@H]4C[C@@H]4c4ccccc4)C3)cc2)C[C@@H]1C(=O)NCCCCCC` [Compound 029], for which the negative logarithm of the EC50 (pEC50) was 6.46 to 7.29.

Still in this test, the particulars now being: HEK-Blue TLR2 reporter cells, agonist mode; average of all runs (Table 4).
`CCCCCCCO[C@H]1CN(C(=O)c2ccc(C(=O)N3C[C@@H](C(=O)N[C@H]4C[C@@H]4c4ccccc4)[C@H](C(=O)N[C@H]4C[C@@H]4c4ccccc4)C3)cc2)C[C@@H]1NC(=O)NCCCCC` [Compound 156, (3S,4S)-1-(4-((3S,4S)-3-(heptyloxy)-4-(3-pentylureido)pyrrolidine-1-carbonyl)benzoyl)-N3,N4-bis((1S,2R)-2-phenylcyclopropyl)pyrrolidine-3,4-dicarboxamide] showed a negative-log EC50 (pEC50) of 6.46 to 7.29. Same read-out and setting: in the case of `CCCCCCCCCCCCCCNC(=O)[C@H]1CN(C(=O)c2ccc(C(=O)N3C[C@@H](C(=O)N[C@H]4C[C@@H]4c4ccccc4)[C@H](C(=O)N[C@H]4C[C@@H]4c4ccccc4)C3)cc2)CCN1C(C)=O` [Compound 163, (3S,4S)-1-(4-((R)-4-acetyl-3-(tetradecylcarbamoyl)piperazine-1-carbonyl)benzoyl)-N3,N4-bis((1S,2R)-2-phenylcyclopropyl)pyrrolidine-3,4-dicarboxamide] it was 6.00 to 6.45. Same read-out and setting: in the case of `CCCCCCCCCCCCCCNC(=O)[C@@H]1CN(C(=O)c2ccc(C(=O)N3C[C@@H](C(=O)N[C@H]4C[C@@H]4c4ccccc4)[C@H](C(=O)N[C@H]4C[C@@H]4c4ccccc4)C3)cc2)C[C@H]1O` (single isomer, unassigned) [Compound 105, (3S,4S)-1-(4-((3R*,4S*)-3-hydroxy-4-(tetradecylcarbamoyl)pyrrolidine-1-carbonyl)benzoyl)-N3,N4-bis((1S,2R)-2-phenylcyclopropyl)pyrrolidine-3,4-dicarboxamide] it was 6.46 to 7.29; in that of `CCCCCCCCCC(=O)N[C@@H](CNc1nc2ccc(C(=O)N3C[C@@H](C(=O)N[C@H]4C[C@@H]4c4ccccc4)[C@H](C(=O)N[C@H]4C[C@@H]4c4ccccc4)C3)cc2s1)C(=O)NCCCCCC` [Compound 262, (3S,4S)-1-(2-(((S)-2-decanamido-3-(hexylamino)-3-oxopropyl)amino)benzo[d]thiazole-6-carbonyl)-N3,N4-bis((1S,2R)-2-phenylcyclopropyl)pyrrolidine-3,4-dicarboxamide], < 6.00; in that of `CCCCCCCC(=O)N1CCN(Cc2ccc(C(=O)N3C[C@@H](C(=O)N[C@H]4C[C@@H]4c4ccccc4)[C@H](C(=O)N[C@H]4C[C@@H]4c4ccccc4)C3)cc2)C[C@@H]1C(=O)NCCCCCC` [Compound 121, (3S,4S)-1-(4-(((R)-3-(hexylcarbamoyl)-4-octanoylpiperazin-1-yl)methyl)benzoyl)-N3,N4-bis((1S,2R)-2-phenylcyclopropyl)pyrrolidine-3,4-dicarboxamide], 6.00 to 6.45. The same measure, in the same setting: under `CCCCCCCC(=O)N1CCCN(C(=O)c2cccc(C(=O)N3C[C@@H](C(=O)N[C@H]4C[C@@H]4c4ccccc4)[C@H](C(=O)N[C@H]4C[C@@H]4c4ccccc4)C3)c2)C[C@H]1C(=O)NCCCCCC` (single isomer, unassigned) [Compound 190] stands 6.00 to 6.45; under `CCCCCCCCCCCCCCNC(=O)[C@H]1CCCN(C(=O)c2ccc(C(=O)N3C[C@@H](C(=O)N[C@H]4C[C@@H]4c4ccccc4)[C@H](C(=O)N[C@H]4C[C@@H]4c4ccccc4)C3)cc2)C1` [Compound 123, (3S,4S)—N3,N4-bis((1S,2R)-2-phenylcyclopropyl)-1-(4-((S)-3-(tetradecylcarbamoyl)piperidine-1-carbonyl)benzoyl)pyrrolidine-3,4-dicarboxamide], 7.30 to 10.00; under `CCCCCCCCCNC(=O)[C@@H]1CN(C(=O)c2ccc(C(=O)N3C[C@@H](C(=O)N[C@H]4C[C@@H]4c4ccccc4)[C@H](C(=O)N[C@H]4C[C@@H]4c4ccccc4)C3)cc2)CCN1C(C)=O` [Compound 257, (3S,4S)-1-(4-((S)-4-acetyl-3-(nonylcarbamoyl)piperazine-1-carbonyl)benzoyl)-N3,N4-bis((1S,2R)-2-phenylcyclopropyl)pyrrolidine-3,4-dicarboxamide], 6.00 to 6.45. The compound `CCCCCCCC(=O)N1CCCN(S(=O)(=O)c2cccc(C(=O)N3C[C@@H](C(=O)N[C@H]4C[C@@H]4c4ccccc4)[C@H](C(=O)N[C@H]4C[C@@H]4c4ccccc4)C3)c2)C[C@@H]1C(=O)NCCCCCC` (single isomer, unassigned) [Compound 201] had a negative-log EC50 (pEC50) of 6.00 to 6.45. On the same count and under the same terms, in the case of `CO[C@H]1CN(C(=O)c2ccc(C(=O)N3C[C@@H](C(=O)N[C@H]4C[C@@H]4c4ccccc4)[C@H](C(=O)N[C@H]4C[C@@H]4c4ccccc4)C3)cc2)C[C@@H]1NC(=O)NCCc1ccc(F)cc1` [Compound 182, (3S,4S)-1-(4-((3S,4S)-3-(3-(4-fluorophenethyl)ureido)-4-methoxypyrrolidine-1-carbonyl)benzoyl)-N3,N4-bis((1S,2R)-2-phenylcyclopropyl)pyrrolidine-3,4-dicarboxamide] it was < 6.00.

`CCCCCCNC(=O)[C@H](CNC(=O)c1ccc(C(=O)N2C[C@@H](C(=O)N[C@H]3C[C@@H]3c3ccccc3)[C@H](C(=O)N[C@H]3C[C@@H]3c3ccccc3)C2)cc1)NC(=O)NCc1ccc(F)cc1` [Compound 186, (3S,4S)-1-(4-(((S)-2-(3-(4-fluorobenzyl)ureido)-3-(hexylamino)-3-oxopropyl)carbamoyl)benzoyl)-N^3,N^4-bis((1S,2R)-2-phenylcyclopropyl) pyrrolidine-3,4-dicarboxamide] had a pEC50 of 7.30 to 10.00. Same read-out and setting: in the case of `O=C1CCCCCCCCCCCCNC(=O)[C@H](CNC(=O)c2ccc(C(=O)N3C[C@@H](C(=O)N[C@H]4C[C@@H]4c4ccccc4)[C@H](C(=O)N[C@H]4C[C@@H]4c4ccccc4)C3)cc2)N1` [Compound 225, (3S,4S)-1-(4-((((S)-3,17-dioxo-1,4-diazacycloheptadecan-2-yl)methyl)carbamoyl)benzoyl)-N3,N4-bis((1S,2R)-2-phenylcyclopropyl)pyrrolidine-3,4-dicarboxamide] it was 6.00 to 6.45; in that of `CCCCCCNC(=O)[C@H](CNC(=O)c1ccc(C(=O)N2C[C@@H](C(=O)N[C@H]3C[C@@H]3c3ccccc3)[C@H](C(=O)N[C@H]3C[C@@H]3c3ccccc3)C2)cc1)NC(=O)CCc1ccc(F)cc1` [Compound 139, (3S,4S)-1-(4-(((S)-2-(3-(4-fluorophenyl)propanamido)-3-(hexylamino)-3-oxopropyl)carbamoyl)benzoyl)-N3,N4-bis ((1S,2R)-2-phenylcyclopropyl) pyrrolidine-3,4-dicarboxamide], 7.30 to 10.00.
